# Source: patent US6627621B2, “Neutrophil function inhibitors” (Dainichieseika Color & Chemicals Mfg. Co., Ltd., priority 2001, dated 2003)
# Experiments:
# Assay type in all cases: cell-based, Guinea pig
# neutrophils [1] = assay: Ingesting ability of neutrophils (ingestion of opsonized zymosan, ingestion index); conditions: 0.01, 0.1 and 1 mM, 37° C. 20 minutes preincubation; OPZ (1:6) 30 minutes; FIG. 3
# Method: (§1) A glycogen solution (0.17% glycogen-0.9% NaCl solution) was administered into the abdominal cavity of a Guinea pig. About 15 hours later, the abdominal cavity was washed with a 0.4% sodium citrate-0.9% NaCl solution to collect an exudate. The exudate contained neutrophils of 95% or higher purity. After the abdominal cavity exudate was washed twice with phosphate buffer (pH 7.4), the neutrophils were suspended in phosphate buffer (pH 7.4) to prepare a neutrophil suspension. Inhibiting effects of a glucosamine salt on neutrophil functions were investigated with respect to the generation of active oxygen, ingesting effect and extra-cellular releasing effect on granular components by methods to be described subsequently herein. Data are each shown as a mean ± standard deviation S.D. of three or more samples. Further, a test was conducted using an AVOVA. Glucosamine hydrochloride was added at 0.01 mM, 0.1 mM and 1 mM to aliquots of a neutrophil suspension (neutrophil concentration: 10^7 cells/mL), respectively, followed by incubation at 37° C. for 20 minutes. To each of the reaction mixtures, opsonized zymosan (OPZ; count ratio of OPZ to neutrophils: 1:6) was added, followed by a reaction for 30 minutes. The count of the yeast ingested by neutrophils was determined under a microscope, and was expressed in terms of an ingestion index.
# neutrophils [2] = assay: Extracellular release of granular enzyme lysozyme from neutrophils; conditions: 0.01, 0.1 and 1 mM, 37° C. 20 minutes preincubation; OPZ (1:6) 30 minutes; FIG. 4
# Method: as §1, with “[…] The reaction mixture was centrifuged, the supernatant was collected, and then, the activity” for “To each”, “granular enzyme, lysozyme, released to the outside” for “reaction mixtures, opsonized zymosan (OPZ; count ratio”, “cells” for “OPZ to neutrophils: 1:6)”, “measured” for “added, followed”, “calorimetrically quantitating dissolution” for “a reaction for 30 minutes. The count”, “Micrococcus lysodeikticus cells.” for “the yeast ingested by neutrophils was determined under a microscope, and was expressed in terms of an ingestion index.”
# neutrophils [3] = assay: Emigrating ability of neutrophils (Boyden's chamber, C5a as emigrating factor); conditions: 0.01, 0.1 and 1 mM, 37° C. 20 minutes preincubation, 3 μm membrane, FIG. 5
# Method: A glycogen solution (0.17% glycogen-0.9% NaCl solution) was administered into the abdominal cavity of a Guinea pig. About 15 hours later, the abdominal cavity was washed with a 0.4% sodium citrate-0.9% NaCl solution to collect an exudate. The exudate contained neutrophils of 95% or higher purity. After the abdominal cavity exudate was washed twice with phosphate buffer (pH 7.4), the neutrophils were suspended in phosphate buffer (pH 7.4) to prepare a neutrophil suspension. The emigrating ability of neutrophils was measured by using as an emigrating factor the component factor C5 a generated by reacting fresh serum with a yeast. Described specifically, glucosamine hydrochloride was added at 0.01 mM, 0.1 mM and 1 mM to aliquots of a neutrophil suspension (neutrophil concentration: 3×10^6 cells/mL), respectively, followed by incubation at 37° C. for 20 minutes. The reaction mixtures were separately placed in Boyden's chambers each of which was equipped with a nitrocellulose membrane of 3 μm in pore size, and were then incubated at 37° C. for 20 minutes. After the reaction, distances over which neutrophils had emigrated were measured under a microscope.
# neutrophils [4] = assay: Generation of active oxygen by neutrophils (cytochrome c reduction method); conditions: 0.01, 0.1 and 1 mM, 37° C. 20 minutes preincubation
# Method: A glycogen solution (0.17% glycogen-0.9% NaCl solution) was administered into the abdominal cavity of a Guinea pig. About 15 hours later, the abdominal cavity was washed with a 0.4% sodium citrate-0.9% NaCl solution to collect an exudate. The exudate contained neutrophils of 95% or higher purity. After the abdominal cavity exudate was washed twice with phosphate buffer (pH 7.4), the neutrophils were suspended in phosphate buffer (pH 7.4) to prepare a neutrophil suspension.
# Inhibiting effects of a glucosamine salt on neutrophil functions were investigated with respect to the generation of active oxygen, ingesting effect and extra-cellular releasing effect on granular components by methods to be described subsequently herein. Data are each shown as a mean ± standard deviation S.D. of three or more samples. Further, a test was conducted using an AVOVA.
# Glucosamine hydrochloride was added at 0.01 mM, 0.1 mM and 1 mM to aliquots of a neutrophil suspension (neutrophil concentration: 10^6 cells/mL), respectively, followed by incubation at 37° C. for 20 minutes. To each of the reaction mixtures, N-formyl-1-methionyl-1-leucyl-1-phenylalanine (FMLP; 10^−7 M) or opsonized zymosan (OPZ; count ratio of OPZ to neutrophils: 1:6) was added as an emigrating factor to stimulate neutrophils for 30 minutes. Generated active oxygen was measured by the cytochrome c reduction method. […]
compound,measurement,setting,value
"Cl.N[C@H]1C(O)O[C@H](CO)[C@@H](O)[C@@H]1O (some centres unmarked) [glucosamine hydrochloride, Glucosamine hydrochloride]",ingestion of opsonized zymosan by neutrophils,neutrophils [1],inhibited in a concentration-dependent manner
same,extracellular release of the granular enzyme (lysozyme) from neutrophils by opsonized zymosan,neutrophils [2],significantly inhibited
same,emigrating ability of neutrophils,neutrophils [3],inhibited in a concentration-dependent manner
same,formation of active oxygen by FMLP,"neutrophils [4]; FMLP 10^-7 M stimulation 30 minutes, FIG. 1",inhibited in a concentration-dependent manner
same,formation of active oxygen by opsonized zymosan,"neutrophils [4]; OPZ (1:6) stimulation 30 minutes, FIG. 2",inhibited in a concentration-dependent manner
